These results are taken from patent publication US7186741B2, “Neurotensin active 2,3,diaryl-pyrazolidine derivatives” (Solvay Pharmaceuticals B.V., priority 2002, dated 2007).

The test system of the assay is enzymes which degrade the neuropeptide neurotensin. Kind of assay: pharmacological activity of stereoisomers/racemates (test not specified). The settings on record: result in words; comparison of enantiomers or diastereomeric racemates. In kind it is biochemical. From the text:
The invention relates to a group of new 2,3-diaryl-pyrazolidine derivatives having inhibiting activity on enzymes which degrade the neuropeptide neurotensin.
The compounds according to the invention are active in inhibiting the abovementioned enzymes in the range of 5.0–8.0 (plC50 values), when tested according to the methods described in Biochem. J. 280, 421–426, and Eur. J. Biochem. 202, 269–276.

For `O=C(NCC(=O)N1CCC(c2ccccc2Cl)N1c1ccccc1Cl)NC1C2CC3CC(C2)CC1C3` (stereo not shown) [Compound A12], the “pharmacological activity (active / inactive racemate, eutomer)” value is “eutomer”.
